Experimental data taken from patent US20250066290A1, “DHODH INHIBITORS CONTAINING A CARBOXYLIC ACID BIOISOSTERE” (IMMUNIC AG, priority 2021, published 2025).
Where two headings read alike, the source gives them in different places.

Columns and labels:
[1] = molecular target: N-terminally truncated recombinant hDHODH enzyme (Homo sapiens, UniProt Q02127); test: biochemical; format: biochemical
Protocol: Briefly, the hDHODH concentration was adjusted in a way that an average slope of approximately 0.2 AU/min served as the positive control (e.g. without inhibitor). The standard assay mixture contained 60 μM 2,6-dichloroindophenol, 50 μM decylubiquinone and 100 μM dihydroorotate. The hDHODH enzyme with or without at least six different concentrations of the compounds was added and measurements were performed in 50 mM TrisHCl, 150 mM KCl and 0.1% Triton X-100 at pH 8.0 and at 30° C. The reaction was started by adding dihydroorotate and measuring the absorption at 600 nm for 2 min. For the determination of the IC50 values, each data point was recorded in triplicate. […].

[2] = test system: SARS-CoV-2; test: SARS-CoV-2 viral replication (YFP) assay; format: cell-based; details: Severe acute respiratory syndrome coronavirus 2, read-out: EC50 range
[3] = human DHODH assay, read-out: IC50 range

Chain of N-terminally truncated recombinant hDHODH enzyme (Q02127 whole entry, looked up, the tested form may be a part): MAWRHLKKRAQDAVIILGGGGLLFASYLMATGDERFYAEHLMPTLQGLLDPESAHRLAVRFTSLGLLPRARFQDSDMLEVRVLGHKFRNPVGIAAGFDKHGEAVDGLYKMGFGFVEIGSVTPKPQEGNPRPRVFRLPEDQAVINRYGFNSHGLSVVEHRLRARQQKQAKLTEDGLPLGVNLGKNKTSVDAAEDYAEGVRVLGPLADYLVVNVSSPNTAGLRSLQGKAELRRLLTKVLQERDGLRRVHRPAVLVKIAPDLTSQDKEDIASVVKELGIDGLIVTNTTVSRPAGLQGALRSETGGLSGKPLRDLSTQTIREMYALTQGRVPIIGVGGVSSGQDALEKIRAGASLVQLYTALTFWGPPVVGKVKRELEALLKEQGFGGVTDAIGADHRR

[2H]C([2H])([2H])Oc1cccc(C23CCC(NC(=O)C4=C(C(=O)NOC)CCC4)(CC2)CC3)c1 [4/24]
IC50 [1, 3]: > 10 µM

[2H]C([2H])([2H])Oc1cccc(-c2cc(F)c(NC(=O)C3=C(C(=O)NOC)CC(F)(F)C3)c(F)c2)c1 [4/25]
IC50 [1, 3]: < 0.1 µM | EC50 [2]: < 1 µM

[2H]C([2H])([2H])Oc1ccccc1-c1c(F)c(F)c(NC(=O)C2=C(C(=O)NOC)CCC2)c(F)c1F [4/26]
IC50 [1, 3]: < 0.1 µM | EC50 [2]: < 1 µM

[2H]C([2H])([2H])Oc1ccccc1-c1c(F)c(F)c(NC(=O)C2=C(C(=O)NOCCO)CCC2)c(F)c1F [4/27]
IC50 [1]: 0.1 to 1 µM | EC50 [2]: < 1 µM

[2H]C([2H])([2H])Oc1cccc(-c2c(F)c(F)c(NC(=O)c3cscc3C(=O)NOC)c(F)c2F)c1 [4/28]
IC50 [1, 3]: < 0.1 µM | EC50 [2]: < 1 µM

[2H]C([2H])([2H])Oc1cccc(-c2c(F)c(F)c(NC(=O)C3=C(C(=O)NOCCO)CC(F)(F)C3)c(F)c2F)c1 [4/29]
IC50 [1, 3]: < 0.1 µM | EC50 [2]: < 1 µM

[2H]C([2H])([2H])Oc1cccc(-c2c(F)c(F)c(NC(=O)c3c[nH]cc3C(=O)NOC)c(F)c2F)c1 [4/30]
IC50 [1]: 0.1 to 1 µM | EC50 [2]: < 10 µM

[2H]C([2H])([2H])ONC(=O)c1cscc1C(=O)Nc1c(F)c(F)c(-c2cccc(OC([2H])([2H])[2H])c2)c(F)c1F [4/31]
IC50 [1, 3]: < 0.1 µM | EC50 [2]: < 1 µM

[2H]C([2H])([2H])ONC(=O)c1cscc1C(=O)Nc1c(F)c(F)c(-c2ccccc2OC([2H])([2H])[2H])c(F)c1F [4/32]
IC50 [1, 3]: < 0.1 µM | EC50 [2]: < 1 µM

[2H]c1c([2H])c(F)c([2H])c(-c2c(F)c(F)c(NC(=O)C3=C(C(=O)NOC([2H])([2H])[2H])COC3)c(F)c2F)c1[2H] [5/2]
IC50 [1]: 0.1 to 1 µM | EC50 [2]: < 1 µM

[2H]C([2H])([2H])Oc1cccc(-c2c(F)c(F)c(NC(=O)C3=C(C(=O)NOCCO)COC3)c(F)c2F)c1 [5/6]
IC50 [1]: 0.1 to 1 µM | EC50 [2]: < 10 µM

[2H]C([2H])([2H])Oc1cccc(-c2ccc(NC(=O)C3=C(C(=O)NOCCO)CCC3)c(F)c2)c1 [5/7]
IC50 [1, 3]: > 10 µM

[2H]C([2H])([2H])Oc1cccc(-c2ccc(NC(=O)C3=C(C(=O)NOC)CCC3)c(F)c2)c1 [5/8]
IC50 [1]: 1 to 10 µM

[2H]C([2H])([2H])ONC(=O)C1=C(C(=O)Nc2c(F)c(F)c(-c3ccccc3OC([2H])([2H])[2H])c(F)c2F)COC1 [5/10]
IC50 [1, 3]: < 0.1 µM

[2H]C([2H])([2H])Oc1ccccc1-c1c(F)c(F)c(NC(=O)C2=C(C(=O)NOC)COC2)c(F)c1F [5/11]
IC50 [1, 3]: < 0.1 µM

[2H]C([2H])([2H])ONC(=O)C1=C(C(=O)Nc2c(F)c(F)c(-c3cccc(OC([2H])(C([2H])([2H])[2H])C([2H])([2H])[2H])c3)c(F)c2F)COC1 [5/15]
IC50 [1, 3]: < 0.1 µM

[2H]C([2H])([2H])ONC(=O)C1=C(C(=O)Nc2c(F)c(F)c(-c3cc(F)cc(OC([2H])([2H])[2H])c3)c(F)c2F)COC1 [5/16]
IC50 [1, 3]: < 0.1 µM

[2H]C([2H])([2H])Oc1cccc(-c2c(F)c(F)c(NC(=O)C3=C(C(=O)NOCCO)CSC3)c(F)c2F)c1 [6/2]
IC50 [1, 3]: < 0.1 µM | EC50 [2]: < 10 µM

[2H]C([2H])([2H])Oc1ccccc1-c1c(F)c(F)c(NC(=O)C2=C(C(=O)NOCCO)CSC2)c(F)c1F [6/3]
IC50 [1, 3]: < 0.1 µM | EC50 [2]: < 1 µM

[2H]C([2H])([2H])Oc1cccc(-c2cc(F)c(NC(=O)C3=C(C(=O)NOC)CCC3)c(OC([2H])([2H])[2H])c2)c1 [8/2]
IC50 [1]: 1 to 10 µM | EC50 [2]: < 10 µM

[2H]C([2H])([2H])Oc1cccc(-c2c(F)c(F)c(NC(=O)c3cc(F)sc3C(=O)NOC)c(F)c2F)c1 [16/2]
IC50 [1, 3]: < 0.1 µM

[2H]C([2H])([2H])Oc1cccc(-c2c(F)c(F)c(NC(=O)c3sc(F)cc3C(=O)NOC)c(F)c2F)c1 [16/3]
IC50 [1, 3]: < 0.1 µM

CONC(=O)C1=C(C(=O)Nc2ccc(-c3cccc(OC)c3)cc2F)CCC1 [Example 4/33]
IC50 [1]: 1 to 10 µM | IC50 ([1]; matched pair comparison, read-out: DHODH IC50): 2.02 µM

[2H]C([2H])([2H])Oc1cccc(-c2cc(F)c(N(CC(=O)OC)C(=O)C3=C(C(=O)NOC)CCC3)c(F)c2)c1 [Example 14, Methyl N-(3,5-difluoro-3′-(methoxy-d3)-[1,1′-biphenyl]-4-yl)-N-(2-(methoxy-carbamoyl)cyclopent-1-ene-1-carbonyl)glycinate]
IC50 [1]: 1 to 10 µM

[2H]C([2H])([2H])Oc1cccc(-c2cc(F)c(N(CCO)C(=O)C3=C(C(=O)NOC)CCC3)c(F)c2)c1 [Example 15, N1-(3,5-Difluoro-3′-(methoxy-d3)-[1,1′-biphenyl]-4-yl)-N1-(2-hydroxyethyl)-N2-methoxy-cyclopent-1-ene-1,2-dicarboxamide]
IC50 [1, 3]: > 10 µM

[2H]C([2H])([2H])Oc1cccc(-c2c(F)c(F)c(NC(=O)c3ncsc3C(=O)NOC)c(F)c2F)c1 [Example 16-1, N5-methoxy-N4-(2,3,5,6-tetrafluoro-3′-(methoxy-d3)-[1,1′-biphenyl]-4-yl)thiazole-4,5-dicarboxamide]
IC50 [1, 3]: < 0.1 µM

[2H]C([2H])([2H])Oc1cccc(-c2c(F)c(F)c(NC(=O)c3scnc3C(=O)NOC)c(F)c2F)c1 [Example 16-2, N4-methoxy-N5-(2,3,5,6-tetrafluoro-3′-(methoxy-d3)-[1,1′-biphenyl]-4-yl)thiazole-4,5-dicarboxamide]
IC50 [1]: 0.1 to 1 µM
